By IC50 is commonly meant the concentration at which inhibition is half-maximal. Low readings indicate higher potency, high ones lower potency.

SMILES strings stand for the structures.

The record followed here is patent US5883092A, “Pyrimidine derivatives as endothelin antagonists” (Kowa Co., Ltd., priority 1995, dated 1999).

The target of assay [1] is T1, ETB (Rattus norvegicus, UniProt P21451).
T1 construct: Rat brain tissue was minced, and a crude receptor membrane sample was prepared; from tissue; host or cells: rat brain; crude membranes
T1 sequence (P21451 27-442): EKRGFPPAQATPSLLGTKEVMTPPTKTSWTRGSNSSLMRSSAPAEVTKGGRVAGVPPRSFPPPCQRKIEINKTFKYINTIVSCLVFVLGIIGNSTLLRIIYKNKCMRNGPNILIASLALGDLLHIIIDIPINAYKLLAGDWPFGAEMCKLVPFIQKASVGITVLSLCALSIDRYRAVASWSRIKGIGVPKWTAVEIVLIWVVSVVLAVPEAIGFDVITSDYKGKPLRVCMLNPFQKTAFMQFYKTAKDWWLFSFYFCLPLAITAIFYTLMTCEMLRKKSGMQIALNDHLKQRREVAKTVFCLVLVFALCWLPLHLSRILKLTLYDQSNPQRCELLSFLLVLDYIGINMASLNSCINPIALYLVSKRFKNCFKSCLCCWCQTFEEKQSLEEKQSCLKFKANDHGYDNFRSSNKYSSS
Nature of the assay: Endothelin binding inhibition experiment, 125I-endothelin-1 binding, ETB, membranes from rat brain. The conditions noted are these: 125I-endothelin-1 2×10^-11 M, 2 hours at 25° C., pH 7.4. The method, then: (§1) Endothelin binding inhibition experiment
(§2) The thus-obtained membrane sample (1 μl) was incubated together with ^125 I-endothelin-1 (2×10^-11 M) and various concentrations of the compounds, for 2 hours at 25° C., in 250 μl in total volume of 50 mM Tris-HCl buffer (pH 7.4) containing 0.5% bovine serum albumin. The incubated mixture was filtered by use of HVPP filters (pore size 0.45 μm, product of Milipore). The filters were washed with cold buffer A four times, and then measured with a gamma-ray counter (Aroka Autowell Gamma System ARC-251). Preparation of crude receptor membrane samples (ETB) from rat brain and assay of ^125 I endothelin-1:
Rat brain tissue was minced, and a crude receptor membrane sample was prepared in a manner similar to that used in the aforementioned case of porcine thoracic aorta. Also, ^125 I-endothelin-1 assay was performed in the same manner as described above.

Assay [2] has as its target T2, ETA (Sus scrofa, UniProt Q29010).
T2 construct: crude receptor membrane samples (ETA) from smooth muscles of porcine thoracic aorta; from tissue; host or cells: porcine thoracic aorta smooth muscle, endothelium removed; crude membranes
T2 sequence (Q29010 21-427): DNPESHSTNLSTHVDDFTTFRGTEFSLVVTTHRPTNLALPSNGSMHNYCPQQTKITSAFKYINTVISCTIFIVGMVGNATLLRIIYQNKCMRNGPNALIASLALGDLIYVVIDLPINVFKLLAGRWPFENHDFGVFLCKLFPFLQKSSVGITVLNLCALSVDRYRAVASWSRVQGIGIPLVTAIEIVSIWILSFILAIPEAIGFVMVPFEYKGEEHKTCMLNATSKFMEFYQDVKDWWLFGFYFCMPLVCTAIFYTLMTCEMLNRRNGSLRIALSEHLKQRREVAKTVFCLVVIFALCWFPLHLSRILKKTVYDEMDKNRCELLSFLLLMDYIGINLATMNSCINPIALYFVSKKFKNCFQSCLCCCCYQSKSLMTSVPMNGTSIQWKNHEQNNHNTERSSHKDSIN
Nature of the assay: Endothelin binding inhibition experiment, 125I-endothelin-1 binding, ETA, membranes from smooth muscles of porcine thoracic aorta. The conditions noted are these: 125I-endothelin-1 2×10^-11 M, 2 hours at 25° C., pH 7.4. On the procedure:
as §1
Preparation of crude receptor membrane samples (ETA) from smooth muscles of porcine thoracic aorta:
Porcine thoracic aorta which was separated from the fatty tissue and then was removed endothelium with gauze was minced, and then homogenized in three times the volume of Tris-HCl buffer (pH 7.4) (buffer A) containing 0.25M sucrose, 3 mM ethylenediaminetetraacetic acid, 5 μg/ml of aprotinin, 10 μg/ml of pepstatin A, 10 μg/ml of leupeptin, and 0.1 μM p-amidinophenylmethanesulfonyl fluoride. After centrifugation for 30 minutes at 1,000×g, the supernatant was further centrifuged for 30 minutes at 100,000×g. The pellets were suspended in buffer A, and recentrifuged for 30 minutes at 100,000×g. The pellets were suspended in buffer A and the suspension was stored at -80° C. ^125 I-Endothelin-1 binding assay:
as §2, with “endothelin-1: […]” for “endothelin-1:”

`COc1ccccc1Oc1c(NS(=O)(=O)c2ccc(C(C)(C)C)cc2)nc(N2CCOCC2)nc1OCCC(=O)Nc1ccccc1C(C)C` [Example 2, N-(2-isopropylphenyl)-3-[6-(4-t-butylphenylsulfonylamino)-5-(2-methoxyphenoxy)-2-morpholino-4-pyrimidinyloxy]propionamide]: the values for the IC50 in assay [1] and in assay [2] were 0.86 nM and 63 nM, respectively.
On the same counts, the results for `COc1ccccc1Oc1c(NS(=O)(=O)c2ccc(C(C)(C)C)cc2)nc(N2CCOCC2)nc1OCCC(=O)Nc1ccccn1` [Example 3, N-(2-pyridyl)-3-[6-(4-t-butylphenylsulfonylamino)-5-(2-methoxyphenoxy)-2-morpholino-4-pyrimidinyloxy]propionamide] are 29 nM and 32 nM.
On the same counts, the results for `COc1ccccc1Oc1c(NS(=O)(=O)c2ccc(C(C)(C)C)cc2)nc(N2CCN(C=O)CC2)nc1OCCC(=O)Nc1ccccc1C(C)C` [Example 13, N-(2-isopropylphenyl)-3-[6-(4-t-butylphenylsulfonylamino)-2-(4-formylpiperazinyl)-5-(2-methoxyphenoxy)-4-pyrimidinyloxy]-propionamide] are 5.4 nM and 68 nM.
For `COc1ccccc1Oc1c(NS(=O)(=O)c2ccc(C(C)(C)C)cc2)nc(N2CCOCC2)nc1OCCC(=O)OCc1ccccc1` [Example 23, benzyl 3-[6-(4-t-butylphenylsulfonylamino)-5-(2-methoxyphenoxy)-2-morpholino-4-pyrimidinyloxy]propionate] the same measures were 5.1 nM and 240 nM.
